Measured values taken from publication PMC12257540, “From Inhibitors to PET: SAR-Based Development of [^18F]SK60 for mIDH1 Imaging” (Journal of Medicinal Chemistry, 2025).
Where “and” joins values, the source holds several entries; their conditions need not be identical. Equal entries are not always repeated.

How the values were obtained:
IDH1-U251 cells = test: In vitro cell uptake of [18F]SK60 in IDH1-U251 cells; assay type: cell-based, Human; settings: 240 min incubation
Protocol: Human U251 glioblastoma cells, stably transfected and overexpressing either wild-type IDH1 (IDH1-U251) or IDH1R132H (IDH1R132H–U251), were obtained from Jaqueline Kessler and Dirk Vordermark (Department of Radiotherapy, Martin Luther University Halle-Wittenberg, Halle/Saale, Germany). Cells were grown in RPMI 1640 medium (10% FCS), supplemented with puromycin, to ensure the cultivation of transfected cells only.
The IDH1-U251 and IDH1R132H–U251 cells were seeded at 4,00,000 cells/mL in a 24-well cell culture plate 1 day before the experiment. The medium was replaced by 400 μL/well, and 4 μL of a 100-x stock solution of the respective inhibitor in 10% DMSO or vehicle (10% DMSO) was added about 2 h before the experiment. The experiment was started with the addition of 100 μL of [ ^ 18 F]-SK60 (0.477 ± 0.002 MBq/mL; 4.86 ± 0.33 nM) diluted in cell culture medium per well, and the well plates were incubated in a humidified-air atmosphere incubator containing 5% CO2 at 37 °C for various times. The incubation was stopped by aspiration of the supernatant and washing the cell layers twice with prechilled PBS (500 μL/well). […] The concentrations of surface-bound and internalized activities per well were calculated as a percentage of the applied dose per well and normalized to the protein concentration per well (% AD/μg protein). […]

[1] = In vivo metabolism in naïve mice (radio-RP-HPLC and radio-MLC of plasma and brain); set-up: species or system CD-1 mice; settings: 30 min p.i., i.v.; for parent radioligand fraction in brain: mouse brain; for parent radioligand fraction in plasma: mouse plasma
Protocol: The metabolic stability of [ ^ 18 F]-SK60 was investigated ex vivo by radio-RP-HPLC and radio-micellar-HPLC (MLC) analyses of plasma and brain samples obtained from naïve female mice (n = 3) at 30 min post intravenous injection (p.i.). For the preparation of the RP-HPLC samples, two solvent systems MeCN/water (9/1; v/v) and MeOH/water (9/1; v/v) were tested for activity extraction from the plasma and brain samples. With both systems, recoveries of higher than 95% could be obtained. […] For the radio-MLC analyses, the brain and plasma samples were treated with sodium dodecyl sulfate and directly injected into the MLC system. Despite the slightly different elution profile compared to the RP-HPLC system caused by different separation mechanisms, the quantification of the peaks gave similar results (Figure B). Altogether, the results obtained with these two complementary systems indicate a high metabolic stability of [ ^ 18 F]-SK60 in mice without the formation of brain-penetrable radiometabolites.
[ ^ 18 F]-SK60 (24.3 ± 2.89 MBq) diluted in 200 μL of sterile isotonic saline was injected into the tail vein of restrained, awake mice. Thirty min after injection, animals were anesthetized with isoflurane, blood was collected from the retro-orbital plexus with a heparinized glass Pasteur pipet, and the anesthetized animal was sacrificed by cervical dislocation. Blood plasma was obtained by centrifugation of the whole blood (8000 rpm, 4 °C, 2 min). The brain was isolated, rapidly rinsed with 1 mL isotonic saline to remove superficial blood, and finally homogenized in 1 mL deionized water in an ice–water bath (Potter B. Braun, 1000 rpm, 10 strokes).
Protein precipitation and extraction were performed by using an ice-cold MeCN/water (9:1 v/v) or MeOH/water (9:1 v/v) mixture at a 4:1 (v/v) solvent-to-sample ratio for plasma or brain homogenates. Samples were vortexed for 3 min, equilibrated on ice for 5 min, and centrifuged at 10,000 rpm for 5 min. […] Combined supernatants were concentrated under nitrogen at 75 °C to ∼100 μL and analyzed via radio-HPLC using a Reprosil-Pur 120 C18-AQ column with a gradient MeCN/20 mM NH4OAcaq (pH 6.8) elution (gradient: eluent A 10% MeCN/20 mM NH4OAcaq.; eluent B 90% MeCN/20 mM NH4OAcaq.; 0–5 min 100% A, 5–17 min up to 100% B, 17–26 min 100% B, 26–27 min up to 100% A, 27–30 min 100% A). […]
For the preparation of the MLC samples, mouse plasma (20–50 μL, 2–3 kBq) was dissolved in 200 μL of 200 mM aqueous sodium dodecyl sulfate (SDS) and injected into the MLC system. […] The MLC system consisted of a JASCO PU-980 pump, an AS-2055Plus autoinjector with a 2 mL sample loop, and a UV-1575 detector coupled with a γ radioactivity HPLC detector (Gabi Star, raytest Isotopenmessgeräte GmbH; Straubenhardt; Germany). […]

For Cc1cccc(NC(=O)c2nn(Cc3ccc([18F])cc3)c3c2CN(C(=O)c2ccc[nH]2)CC3(C)C)c1 [[18F]SK60], the internalized radioligand (IDH1-U251 cells) was 0.074 ± 0.023 % AD/μg protein, the surface-bound radioligand (IDH1-U251 cells) was 0.052 ± 0.029 % AD/μg protein and the “parent radioligand fraction in brain” value ([1]; MLC) was 100%. For the same compound, the “parent radioligand fraction in plasma” value ([1]; MLC) was 79%, the “parent radioligand fraction in brain” value ([1]; RP-HPLC) was 100% and the “parent radioligand fraction in plasma” value ([1]; RP-HPLC) was 80 ± 2% and 80%.
